# Assay results taken from patent US20230069886A1, “AROMATIC SULPHONAMIDES DERIVATIVES THAT INHIBITS PDI A3, THEIR SYNTHESIS AND USE” (Uniwersytet Jagiellonski, priority 2020, published 2023).
# What was measured:
# MCF-7 [1] = experiment: Sulforhodamine B antiproliferative assay, 72 h, normal/hypoxia, MCF-7; assay type: cell-based, human; details: for IC50 [μg/ml] MCF-7 hypoxia / IC50 [μg/ml] MCF-7 normal / IC50: 72 hours exposition; for IC50: Homo sapiens, MCF7
# Procedure: (§1) Anticancer activity of selected compounds of invention, PDI A3-inhibitors has been also tested in vitro in antiproliferative assay in normoxic and hypoxic conditions as well in estrogen-stimulated cancer cells. In the experiment, cells were seeded on 96-well plates (Sarstedt, Germany) in appropriate culture medium at a density of 10^5 cells/mL 24 h before adding the tested compounds. Cells were treated with each compound in four concentrations in the range 0.1-100 μg/mL. […] After 72 h of compound treatment at 37° C., 5% CO2 humid atmosphere and in wo different oxygen level conditions: 21%—normal and <1%—hypoxia. In some experiments the MDA-MB-231 and MCF-7 cells were seeded with or without 200 nM estradiol and after 24 h the tested compounds were added. A previously described sulforhodamine B antiproliferative assay was used with minor modifications (Skehan P et al., 1990). Briefly, cells were fixed with 50 μL/well of 50% (w/v) trichloroacetic acid (Avantor Performance Materials, Gliwice, Poland). After 1 h incubation, plates were washed several times with tap water and 50 μL of 0.4% (w/v) solution of sulforhodamine B (Sigma-Aldrich, Germany) in 1% (v/v) acetic acid (Avantor Performance Materials, Gliwice, Poland) was added to each well. After 30 min incubation at room temperature, unbound dye was washed out with 1% (v/v) acetic acid, whereas bound dye was solubilized with 10 mM unbuffered TRIS (Avantor Performance Materials, Gliwice, Poland) solution. The entire procedure was performed using a BioTek EL-406 washing station (BioTek Instruments, USA). After additional 30 min, absorbance was read using a Biotek Hybrid H4 reader (BioTek Instruments, USA) at 540 nm wavelength. MTT assay was used alternatively for HL-60 cell line and in the experiment in which estrogens are added (specified in the table legend). Absorbance was measured using a Biotek Hybrid H4 reader at 570 nm wavelength for MTT assay.
# (§2) Compounds at each concentration were tested in triplicate in a single experiment and each experiment was repeated at least three times independently. Results are presented as mean IC50±SD.
# MDA-MB-231 [2] = experiment: Sulforhodamine B antiproliferative assay, 72 h, normal/hypoxia, MDA-MB-231; assay type: cell-based, human; details: 72 hours exposition; for IC50: Homo sapiens, MDA-MB-231
# Procedure: as §1, §2
# CaCo-2 [3] = experiment: Sulforhodamine B antiproliferative assay, 72 h, Caco-2; assay type: cell-based, human; details: normal (21% of oxygen), 72 hours exposition
# Procedure: In the experiment, cells were seeded on 96-well plates (Sarstedt, Germany) in appropriate culture medium at a density of 10^5 cells/mL 24 h before adding the tested compounds. Cells were treated with each compound in four concentrations in the range 0.1-100 μg/mL. […] Briefly, cells were fixed with 50 μL/well of 50% (w/v) trichloroacetic acid (Avantor Performance Materials, Gliwice, Poland). After 1 h incubation, plates were washed several times with tap water and 50 μL of 0.4% (w/v) solution of sulforhodamine B (Sigma-Aldrich, Germany) in 1% (v/v) acetic acid (Avantor Performance Materials, Gliwice, Poland) was added to each well. After 30 min incubation at room temperature, unbound dye was washed out with 1% (v/v) acetic acid, whereas bound dye was solubilized with 10 mM unbuffered TRIS (Avantor Performance Materials, Gliwice, Poland) solution. […] After additional 30 min, absorbance was read using a Biotek Hybrid H4 reader (BioTek Instruments, USA) at 540 nm wavelength.
# HT-29 [4] = experiment: Sulforhodamine B antiproliferative assay, 72 h, HT-29; assay type: cell-based, human; details: normal (21% of oxygen), 72 hours exposition
# Procedure: as §1, §2
# MDA-MB-231 [5] = experiment: MTT antiproliferative assay, 48 h, MDA-MB-231; assay type: cell-based, human; details: 48-hour exposition
# Procedure: (§3) Anticancer activity of compounds of invention, PDI A3-inhibitors has been tested in vitro in classical antiproliferative assay in various cancer cells lines. Monolayer tumor cell lines MDA-MB-231 (human mammary breast adenocarcinoma), MCF-7 (human breast adenocarcinoma, estrogen-positive), HT-1080 (human fibrosarcoma) and Caco-2 (human colon adenocarcinoma) were cultured in standard medium DMEM (Dulbecco's modified Eagle's medium) (“Sigma”) supplemented with 10% foetal bovine serum (“Sigma”). About 2000-4000 cells per well (depending on line nature) were placed in 96-well plates and after 24 h compounds were added to the wells. Untreated cells were used as a control. The plates were incubated for 48 h, 37° C., 5% CO2. The number of surviving cells was determined using 3-(4,5-dimethylthiazol-2-yl)-2,5-diphenyltetrazolinium bromide (MTT). MTT-test: after incubating culture medium was removed and 200 μL fresh medium with 20 μL MTT (2 mg/mL in HBSS) was added in each well of the plate. After incubation (3 hr., 37° C., 5% CO2), the medium with MTT was removed and 200 μL DMSO were added at once to each sample. The samples were tested at 540 nm on Thermo Scientific Multiskan EX microplate photometer. The half-maximal inhibitory concentration (IC50) of each compound was calculated using Graph Pad Prism® 3.0.
# CaCo-2 [6] = experiment: MTT antiproliferative assay, 48 h, Caco-2; assay type: cell-based, human; details: 48-hour exposition
# Procedure: as §3
# MCF-7 [7] = experiment: MTT antiproliferative assay, 48 h, MCF-7; assay type: cell-based, human; details: 48-hour exposition
# Procedure: as §3
# PDI A3 = molecular target: T1, PDI A3 (Homo sapiens, UniProt P30101); experiment: PDI A3 inhibition, insulin turbidimetric assay; assay type: biochemical; details: 10 ug/ml PDI A3, incubated 60 min at 37° C., turbidity at 650 nm; read-out: Inhibition of PDI A3 (EC 50)
# T1 construct: purchased Mybiosource; host or cells: E. coli
# T1 sequence (P30101 25-505): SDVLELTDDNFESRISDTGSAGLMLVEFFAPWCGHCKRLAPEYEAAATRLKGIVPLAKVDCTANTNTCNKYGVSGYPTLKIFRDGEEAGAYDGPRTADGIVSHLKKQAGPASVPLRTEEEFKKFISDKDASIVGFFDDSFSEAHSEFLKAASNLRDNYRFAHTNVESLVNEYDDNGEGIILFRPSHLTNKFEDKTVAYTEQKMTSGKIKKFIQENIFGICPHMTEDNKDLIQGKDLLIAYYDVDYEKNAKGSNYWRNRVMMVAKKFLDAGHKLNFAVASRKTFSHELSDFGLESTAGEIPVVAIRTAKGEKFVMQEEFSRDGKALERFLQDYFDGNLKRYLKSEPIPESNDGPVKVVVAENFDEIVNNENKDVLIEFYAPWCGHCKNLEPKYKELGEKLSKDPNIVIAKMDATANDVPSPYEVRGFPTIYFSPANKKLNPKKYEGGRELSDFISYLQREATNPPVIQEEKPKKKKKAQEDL
# Procedure: The inhibitory effects compounds of invention on activity of PDIA3 was assess based on the insulin turbidimetric assay. Enzymatic activity of PDIA3 was confirmed by measuring the turbidity increase at 650 nm due to insulin reduction. The assay mixture was prepared by addition 10 ug/ml PDI A3 (E. coli recombinant protein; Mybiosource), […] phosphate buffer (pH7.6), 1 mM EDTA, 0.087 mM DTT and with or without tested compound and was incubated for 60 min, at 37° C. Reaction was started by addition of insulin and DTT. Final concentration of insulin and DTT in assay mixture were 0.15 mMv and 0.174 mMv, respectively. Turbidity was detected at 650 nm against reference samples without PDJs. The measurements were performed at 650 nm using 120-s recordings.
# MDA-MB-231 [8] = experiment: MTT antiproliferative assay, 72 h, with or without estradiol, MDA-MB-231; assay type: cell-based, human; details: Homo sapiens, MDA-MB-231, 72 hours exposition, MTT
# Procedure: as §1, §2
# MCF-7 [9] = experiment: MTT antiproliferative assay, 72 h, with or without estradiol, MCF-7; assay type: cell-based, human; details: Homo sapiens, MCF7, 72 hours exposition, MTT
# Procedure: as §1, §2
# HL-60 = experiment: MTT antiproliferative assay, 72 h, HL-60; assay type: cell-based, human; details: Homo sapiens, HL-60, 72 hours exposition, read-out: IC50 [μg/ml] HL-60 normal
# Procedure: as §1, §2
# MCF-10A = experiment: Selectivity index MCF-10A versus MCF-7; assay type: cell-based; details: 72 hours exposition
# Procedure: as §1
# Compounds at each concentration were tested in triplicate in a single experiment and each experiment was repeated at least three times independently. […]
# HT-29 [10] = experiment: MTT antiproliferative assay, 72 h, HT-29; assay type: cell-based, human; details: Homo sapiens, HT-29, 72 hours exposition, read-out: IC50 [μg/ml] HT-29 normal
# Procedure: as §1, with “A previously described sulforhodamine B antiproliferative assay was used with minor modifications (Skehan P et al., 1990).” left out, “MTT assay was used alternatively for HL-60 cell line and in the experiment in which estrogens are added (specified in the table legend).” left out
# as §2
smiles,measurement,setting,value
COc1ccc(N2C(=O)/C(=C\c3ccc([N+](=O)[O-])s3)SC2=S)cc1 [CCF642],IC50 [μg/ml] MCF-7 hypoxia,MCF-7 [1]; hypoxia (<1% of oxygen),0.6 ± 0.6 µg/mL
same,IC50 [μg/ml] MCF-7 normal,MCF-7 [1]; normal (21% of oxygen),0.7 ± 0.5 µg/mL
same,IC50 [μg/ml] MDA-MB-231 hypoxia,MDA-MB-231 [2]; hypoxia (<1% of oxygen),0.3 ± 0.2 µg/mL
same,IC50 [μg/ml] MDA-MB-231 normal,MDA-MB-231 [2]; normal (21% of oxygen),0.3 ± 0.1 µg/mL
same,IC50 [μg/ml] Caco-2 normal,CaCo-2 [3],0.4 ± 0.1 µg/mL
same,IC50 [μg/ml] HT-29 normal,HT-29 [4],0.4 ± 0.05 µg/mL
"CN(C)c1ccc2c(S(=O)(=O)N3CC3C(N)=O)cccc2c1 (stereo not shown) [Compound C-3459, 1-[[6-(Dimethylamino)-1-naphthyl]sulfonyl]aziridine-2-carboxamide]","Cytotoxicity, IC50, μM MDA-MB-231",MDA-MB-231 [5],n.e.
same,melting point,,197 to 199 °C
same,"Cytotoxicity, IC50, μM CaCo-2",CaCo-2 [6],n.e.
same,"Cytotoxicity, IC50, μM MCF-7",MCF-7 [7],n.e.
same,EC50,PDI A3,130 µM
"NC(=O)C1CN1S(=O)(=O)c1ccc([N+](=O)[O-])cc1 (stereo not shown) [Compound C-3216, 1-(4-Nitrophenyl)sulfonylaziridine-2-carboxamide]",IC50,"MCF-7 [1]; hypoxia (<1% of oxygen), read-out: IC50 [μg/ml] MCF-7 hypoxia",3.6 ± 0.3 µg/mL
same,IC50,"MCF-7 [1]; normal (21% of oxygen), read-out: IC50 [μg/ml] MCF-7 normal",3.7 ± 0.4 µg/mL
same,"Antiproliferative effect, normoxic versus hypoxic conditions","MCF-7 [1]; MCF-7 and MDA-MB-231, Table 3",comparable
same,IC50,"MDA-MB-231 [2]; hypoxia (<1% of oxygen), read-out: IC50 [μg/ml] MDA-MB-231 hypoxia",6.2 ± 3.7 µg/mL
same,IC50,"MDA-MB-231 [2]; normal (21% of oxygen), read-out: IC50 [μg/ml] MDA-MB-231 normal",5 ± 1.4 µg/mL
same,IC50,"CaCo-2 [3]; Homo sapiens, Caco-2, read-out: IC50 [μg/ml] Caco-2 normal",4.5 ± 0.8 µg/mL
same,IC50,"HT-29 [4]; Homo sapiens, HT-29, read-out: IC50 [μg/ml] HT-29 normal",5.6 ± 0.9 µg/mL
"CN(C)C(=O)C1CN1S(=O)(=O)c1ccc2ccccc2c1 (stereo not shown) [Compound C-3373, N,N-Dimethyl-1-(2-naphthylsulfonyl)aziridine-2-carboxamide]",IC50,"MDA-MB-231 [8]; not pretreated with estradiol, read-out: IC50 [μg/ml] MDA-MB-231 normal",3.2 ± 0.1 µg/mL
same,IC50,"MDA-MB-231 [8]; pretreated with 200 nM estradiol, read-out: IC50 [μg/ml] MDA-MB-231 +estradiol",3.2 ± 0.3 µg/mL
same,IC50,"MCF-7 [9]; not pretreated with estradiol, read-out: IC50 [μg/ml] MCF-7 normal",3.3 ± 0.1 µg/mL
same,IC50,"MCF-7 [9]; pretreated with 200 nM estradiol, read-out: IC50 [μg/ml] MCF-7 +estradiol",2.6 ± 0.5 µg/mL
same,IC50,HL-60,3.1 ± 0.1 µg/mL
same,Selectivity index (SI): IC50 of MCF-10A/IC50 of MCF-7,MCF-10A,1.20
same,IC50,HT-29 [10],33.4 ± 1.1 µg/mL
O=C(C1CC1)N1CCN(Cn2sc3ccccc3c2=O)CC1 [LOC14],IC50 [μg/ml] MCF-7 hypoxia,MCF-7 [1]; hypoxia (<1% of oxygen),3.9 ± 0.3 µg/mL
same,IC50 [μg/ml] MCF-7 normal,MCF-7 [1]; normal (21% of oxygen),4.4 ± 0.9 µg/mL
same,IC50 [μg/ml] MDA-MB-231 hypoxia,MDA-MB-231 [2]; hypoxia (<1% of oxygen),2.6 ± 0.5 µg/mL
same,IC50 [μg/ml] MDA-MB-231 normal,MDA-MB-231 [2]; normal (21% of oxygen),2.8 ± 0.4 µg/mL
same,IC50 [μg/ml] Caco-2 normal,CaCo-2 [3],9.1 ± 3.4 µg/mL
same,IC50 [μg/ml] HT-29 normal,HT-29 [4],12.6 ± 8.4 µg/mL
